This is an account of results in ChEMBL document CHEMBL5604063, “ASAP - DENV-2 NS2B-NS3 protease fluorescence dose response” (2024).

This assay concerns the target Genome polyprotein (dengue virus type 2, UniProt P29990). Format: functional, Thailand/16681/1984.

Each structure is given as a SMILES string. “And” between values parts separate entries of the source, which are not always exact repeats. Equal values may be shown once.

Chain of Genome polyprotein (P29990 1346-1475 limits assumed): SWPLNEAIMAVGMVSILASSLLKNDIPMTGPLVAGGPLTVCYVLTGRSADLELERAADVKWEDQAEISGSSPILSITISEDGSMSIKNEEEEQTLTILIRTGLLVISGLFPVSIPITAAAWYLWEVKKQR
Chain of Genome polyprotein (P29990 1476-2093 limits assumed): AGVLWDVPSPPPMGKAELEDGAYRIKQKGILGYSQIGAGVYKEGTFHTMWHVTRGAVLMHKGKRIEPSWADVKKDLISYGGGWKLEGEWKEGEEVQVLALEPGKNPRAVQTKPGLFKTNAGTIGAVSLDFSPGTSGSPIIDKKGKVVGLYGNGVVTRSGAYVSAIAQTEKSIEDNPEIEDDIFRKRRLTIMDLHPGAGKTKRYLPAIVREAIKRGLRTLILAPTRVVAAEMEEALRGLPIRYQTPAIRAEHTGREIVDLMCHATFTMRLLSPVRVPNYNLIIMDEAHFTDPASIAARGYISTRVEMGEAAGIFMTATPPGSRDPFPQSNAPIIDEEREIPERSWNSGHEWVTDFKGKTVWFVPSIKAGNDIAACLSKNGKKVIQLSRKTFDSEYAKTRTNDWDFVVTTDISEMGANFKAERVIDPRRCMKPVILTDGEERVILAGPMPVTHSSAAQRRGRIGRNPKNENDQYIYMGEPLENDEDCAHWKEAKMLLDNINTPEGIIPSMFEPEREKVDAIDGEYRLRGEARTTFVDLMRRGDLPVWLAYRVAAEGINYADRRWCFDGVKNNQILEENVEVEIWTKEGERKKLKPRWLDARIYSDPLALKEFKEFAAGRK

`O=C(N[C@@H](C(=O)N[C@H]1CCCNC1)c1ccc(OCc2ccccc2)cc1)OCc1ccccc1` showed an IC50 above 99.5 µM.

`O=C(O)c1cc(Cl)ccc1S(=O)(=O)N[C@H]1CC[C@@H](Oc2ccccc2)CC1` came in with an IC50 above 99.5 µM.

Turning to `NCc1cccc(NC(=O)[C@@H](N)c2ccc(OCc3ccccc3)cc2)c1`, the concentration for half-maximal inhibition (IC50) is above 99.5 µM.

`NCc1ccccc1Oc1ccc(S(=O)(=O)Nc2ccc(Cl)cc2C(=O)O)cc1` had an IC50 above 99.5 µM.

`O=Cc1ccc(N2CCC(C(=O)Nc3ncc(Br)cc3O)CC2)cc1` came in with an IC50 of 19.1 µM.

On to `c1cc(Cc2noc(CCc3cscn3)n2)no1`, for which the IC50 was above 99.5 µM.

As for `O=C(Nc1cc(Cl)cc(C(=O)Nc2ncc([C@H]3CCCN3)s2)c1)OCc1ccccc1`, the IC50 was above 99.5 µM.

For `NCc1cccc(NC(=O)[C@H](NC(=O)OCc2ccccc2)c2cccc(OCc3ncccn3)c2)c1`, the IC50 is above 99.5 µM.

Turning to `c1ccc2c(CN3CCCc4cnccc4C3)n[nH]c2c1`, the half-maximal inhibitory concentration (IC50) was above 99.5 µM.

The compound `O=C(N[C@@H](C(=O)NCc1ccc(CN2CCCC2)cc1)c1ccc(OCc2ccccc2)cc1)OCc1ccccc1` returned an IC50 above 99.5 µM.

Consider `Brc1cccc2cn(Cc3ncccn3)nc12`, for which the IC50 is above 99.5 µM.

The compound `NCc1cccc(NC(=O)[C@H](NC(=O)OCc2ccccc2)c2cccc(OCC3CCOCC3)c2)c1` returned an IC50 above 99.5 µM.

Regarding `C[C@@H](NC(=O)c1cc(Cl)ccc1NS(=O)(=O)c1ccc(Oc2ccccc2Cl)cc1)C1COC1`, half-maximal inhibition (IC50) required 70.2 µM.

`CN(C)Cc1ccccc1CNC(=O)[C@@H](NC(=O)OCc1ccccc1)c1ccc(OCc2ccccc2)cc1`: the IC50 was above 99.5 µM.

The compound `FC(F)(F)c1nnc(COc2cncnc2)s1` showed a half-inhibitory concentration (IC50) above 99.5 µM.

Take `Cc1cccc(-c2nc3c(C(=O)Nc4ccc5c(c4)CNC5)cc(F)cc3[nH]2)c1`: the IC50 was 8.87 µM and 6.46 µM.

Compound `O=C(N[C@@H](C(=O)Nc1ccccn1)c1ccc(OCc2ccccc2)cc1)OCc1ccccc1` yielded an IC50 above 99.5 µM.

`CCn1c(=O)c(N2C[C@H]3CCCN3C(=O)[C@H]2C)nc2ccccc21` had a concentration for half-maximal inhibition (IC50) above 99.5 µM.

Compound `NC(=O)c1cnccc1N1CCN(Cc2c[nH]c3ccccc23)CC1` displayed an IC50 above 99.5 µM.

`CCn1c(=O)c(N2CC[C@H](c3cnccn3)C2)nc2ccccc21` registered an IC50 above 99.5 µM.

Take `NCc1ccc(COc2ccc(-c3ccc(N)nc3)c3c2OB(O)CC3)cc1`: the IC50 is above 99.5 µM.

For the compound `O=C(O)c1cc(Cl)ccc1S(=O)(=O)N[C@H]1CCN(Cc2ccccc2)C2(CC2)C1`, the concentration for half-maximal inhibition (IC50) is above 99.5 µM.

`CCCC[C@@H](NC(=O)OC(C)(C)C)C(=O)N[C@@H](C(=O)NCc1ccc(CN)cc1)c1ccc(OCc2ccccc2)cc1` returned an IC50 of 36.4 µM.

With `CCn1cc(-c2ccccc2)nc(N2CC[C@@H](CO)C2)c1=O`, the concentration for half-maximal inhibition (IC50) was above 99.5 µM.

Compound `CN1CCC(c2nc(C(F)(F)F)n3c2CN(c2cccc(C(N)=O)n2)CC3)CC1` yielded a concentration for half-maximal inhibition (IC50) above 99.5 µM.

The compound `NCc1ccc(NC(=O)c2cc(Cl)cc(NC(=O)OCc3ccccc3)c2)cc1` displayed an IC50 of 51.5 µM.

`O=C(N[C@@H]1CCc2cn[nH]c2C1)c1cccc2c1NC(=O)[C@]1(CCCN1)C2` came in with an IC50 above 99.5 µM.

In turn, `CC(=O)Nc1cccc(-c2ccc(S(=O)(=O)Nc3ccc(Cl)cc3C(=O)O)cc2)c1` yielded a half-maximal inhibitory concentration (IC50) of 23.9 µM.

For `O=C(Nc1ccc(Cl)cc1C(=O)Nc1cccc(C2CCNCC2)c1)OCc1ccccc1`, the IC50 was above 99.5 µM.

Consider `Cc1cc(NC(=O)c2cc(C3CC3)n(C)c2C)ccc1N1CCCC1=O`, for which the IC50 was above 99.5 µM.

For `O=C(NC1CCCCC1)c1cc(Cl)ccc1NS(=O)(=O)c1ccc(Oc2ccccc2Cl)cc1`, the IC50 turned out to be 13.7 µM.

As for `Cc1cc(CNC(=O)[C@@H](NC(=O)OCc2ccccc2)c2ccc(OCc3ccccc3)cc2)cc(C)n1`, the IC50 is above 99.5 µM.

The compound `NCc1cccc(NC(=O)[C@@H](NC(=O)OCc2ccccc2)c2ccc(-c3ccc(N)nc3)cc2)c1` returned a 50% inhibitory concentration (IC50) above 99.5 µM.

`CC1=NN(c2ccc(NS(=O)(=O)c3ccc(Cl)cc3C(=O)O)cn2)C(=O)C1` showed a half-inhibitory concentration (IC50) above 99.5 µM.

For `O=C(O)c1cc(Cl)ccc1NS(=O)(=O)c1ccc(Br)cc1`, the IC50 is above 99.5 µM.

For the compound `NCc1ccccc1C1CCN(C(=O)[C@H]2CCN3CC[C@H]2C3)CC1`, the IC50 was above 99.5 µM.

`CCn1c(=O)c(N2C[C@H](C)C[C@H]2c2ccccc2)nc2ccccc21` had an IC50 above 99.5 µM.

Consider `CCCC[C@H](N)C(=O)N[C@H](C(=O)NCc1ccc(C(N)=O)cc1)c1ccc(OCc2ccccc2)cc1`, for which the IC50 was above 99.5 µM.

Regarding `COC(=O)c1cc(Cl)ccc1NS(=O)(=O)c1ccc(O)cc1`, the IC50 was above 99.5 µM.

Compound `CNC(=O)c1cc(Cl)c(OC)cc1NS(=O)(=O)c1ccc(Oc2ccccc2Cl)cc1` came in with an IC50 of 31.9 µM.

Take `CCn1nccc1-c1cccc([C@@H](NC(=O)OCc2ccccc2)C(=O)Nc2cccc(CN)c2)c1`: the IC50 was above 99.5 µM.

The compound `CCn1ccnc(N2CC[C@H](c3c[nH]c4ccccc34)C2)c1=O` gave an IC50 above 99.5 µM.

In the case of `O=C(O)CN(c1ccc(Cl)cc1)S(=O)(=O)c1ccc(Oc2ccccc2Cl)cc1`, half-maximal inhibition (IC50) was put at 86.6 µM.

Compound `CC(C)(CO)NC(=O)[C@@H](NC(=O)OCc1ccccc1)c1ccc(OCc2ccccc2)cc1` displayed an IC50 above 99.5 µM.

On to `CC1(N2CCC(NS(=O)(=O)c3ccc(Cl)cc3C(=O)O)CC2)CCCCC1`, for which the IC50 is above 99.5 µM.

Take `CN(C)Cc1ccc(C(=O)Nc2cc(Cl)cc(C(=O)NC(C)(C)CO)c2)[nH]1`: the IC50 is above 99.5 µM.

On to `COc1ccc(S(=O)(=O)n2nc(OC(=O)c3cccc(-c4ccccc4Cl)c3)cc2N)cc1`, for which the IC50 was above 99.5 µM.

For `Cc1cc(C=O)c(O)c(C(=O)N2CC[C@H](CN(C)C)C2)c1`, the IC50 was above 99.5 µM.

On to `CN(C)Cc1cccc(-c2ccc(S(=O)(=O)Nc3ccc(Cl)cc3C(=O)O)cc2)c1`, for which the IC50 is above 99.5 µM.

The compound `NCc1cccc(NC(=O)c2cc(Cl)ccc2NS(=O)(=O)c2ccc(Oc3ccccc3Cl)cc2)c1` came in with an IC50 above 99.5 µM.

Compound `CCn1ccnc(N2CC[C@H](c3ccn[nH]3)C2)c1=O` had an IC50 above 99.5 µM.

`CCC1([C@H](NC(=O)OCc2ccccc2)C(=O)Nc2cccc(CN)c2)CCCCC1`: the IC50 was above 99.5 µM.

Take `CCn1c(=O)c(N2C[C@H]3CN(C)CC[C@H]3C2)nc2ccccc21`: the IC50 is above 99.5 µM.

`Cc1cc(Cl)c(C)c(C(=O)O)c1NS(=O)(=O)c1ccc(Oc2ccccc2Cl)cc1` had an IC50 of 36.5 µM. This lies in the double-digit micromolar range.

In the case of `c1ccc(-c2c[nH]nc2CN2CCC(c3cscn3)CC2)cc1`, the IC50 is above 99.5 µM.

With `Clc1ccc2c(c1)ncn2Cc1ccc(-c2nn[nH]n2)cc1`, the half-inhibitory concentration (IC50) is above 99.5 µM.

With `NCc1cccc(NC(=O)[C@H](NC(=O)COc2ccccc2)c2ccc(OCc3ccccc3)cc2)c1`, the IC50 stood at 55.2 µM. In other words, the double-digit micromolar range.

In turn, `C=CC[C@H](Nc1cc([C@H]2CCOC2)ccn1)c1cc(C2CC2)n(C)n1` yielded an IC50 above 99.5 µM.

Regarding `O=C(/C=C/c1ccc(N2CCNCC2)cc1)C(=O)N1CCOCC1`, the IC50 is above 99.5 µM.

`COc1cc(COc2cncc3ccccc23)nc(N2CCNCC2)n1` gave an IC50 above 99.5 µM.

Compound `NCc1cccc(NC(=O)c2cc(F)cc(NC(=O)OCc3ccccc3)c2F)c1` returned a half-maximal inhibitory concentration (IC50) above 99.5 µM.

Compound `O=C(O)[C@@H]1CC2(CC[C@@H]1NS(=O)(=O)c1ccc(Oc3ccccc3Cl)cc1)CC2` registered an IC50 above 99.5 µM.

As for `Cn1nccc1-c1ccc([C@@H](NC(=O)OCc2ccccc2)C(=O)Nc2cccc(CN)c2)cc1`, the IC50 was above 99.5 µM.

Turning to `O=C(O)c1cc(Cl)ccc1NS(=O)(=O)c1ccc(OCc2nnnn2C2CCC2)cc1`, the IC50 was above 99.5 µM.

In the case of `Cc1nccnc1Oc1ccc(S(=O)(=O)Nc2ccc(Cl)cc2C(=O)O)cc1`, the IC50 is above 99.5 µM.

For `COc1ccc(S(=O)(=O)Nc2ccc(C(=O)Nc3nc4ccccc4s3)cc2)cc1`, the IC50 was above 99.5 µM.

For `O=C(NCc1nnn[nH]1)c1cc(Cl)ccc1NS(=O)(=O)c1ccc(Oc2ccccc2Cl)cc1`, inhibition was half-maximal at 64.5 µM (IC50). This lies in the double-digit micromolar range.

For the compound `Cc1ccc(S(=O)(=O)CNC(=O)[C@H](Nc2ccc3c(c2)CNC3)c2cc(Cl)cc3[nH]ncc23)cc1`, the 50% inhibitory concentration (IC50) is above 99.5 µM.

As to `NCc1cccc(NC(=O)[C@H](NC(=O)CCc2ccccc2)c2ccc(OCc3ccccc3)cc2)c1`, the IC50 was 14.5 µM and 23.3 µM and 22.9 µM.

In the case of `O=C(Cn1ccnc(N2CC[C@H](CO)C2)c1=O)NCc1nccs1`, the IC50 was above 99.5 µM.

The compound `CCn1c(=O)c(N2C[C@H]3C[C@@H](O)CC[C@H]3C2)nc2ccccc21` returned an IC50 above 99.5 µM.

Take `COc1ccc(F)cc1-c1ccc(S(=O)(=O)Nc2ccc(Cl)cc2C(=O)O)cc1`: the half-inhibitory concentration (IC50) came to 11.7 µM.

`NCc1cccc(CNC(=O)[C@H](NC(=O)OCc2ccccc2)c2ccc(OCc3ccccc3)cc2)c1` showed an IC50 of 15.3 µM.

Take `COc1ccc(C)cc1S(=O)(=O)N[C@@H](C(=O)Nc1cccc(CN)c1)c1ccc(OCc2ccccc2)cc1`: the IC50 is 96 µM.

`COCc1nn(CC#Cc2ccc(Cl)cc2)c(=O)o1`: the IC50 was above 99.5 µM.

The compound `NCc1cccc(NC(=O)[C@@H](NC(=O)OCc2ccccc2)c2ccc(OCc3ncccn3)cc2)c1` showed an IC50 above 99.5 µM.

For the compound `CN1CCN(C2CN(C(=O)c3cc(Br)cc(C=O)c3)C2)CC1`, the half-inhibitory concentration (IC50) was above 99.5 µM.

Turning to `O=C(O)c1cc(Cl)ccc1S(=O)(=O)Nc1ccc(C(=O)N2CCCCC2)cc1`, the IC50 was above 99.5 µM.

On to `N=C(N)NCc1ccc(NC(=O)Oc2ccccc2)cc1`, for which the IC50 was above 59.8 µM.

Consider `Cc1cc(OCc2ccccc2)ccc1NS(=O)(=O)c1ccc(Cl)cc1C(=O)O`, for which the IC50 was determined as 27.1 µM.

Regarding `NC[C@H]1CCN1C(=O)[C@@H](NC(=O)OCc1ccccc1)c1ccc(OCc2ccccc2)cc1`, the IC50 was above 99.5 µM.

In turn, `N#Cc1cccc(NC(=O)c2cccc(OCc3c(Cl)cccc3Cl)c2)c1` came in with an IC50 above 99.5 µM.

In turn, `Cn1cc(Nc2ccc(S(=O)(=O)Nc3ccc(Cl)cc3C(=O)O)cn2)cn1` registered an IC50 above 99.5 µM.

For `NCc1cccc(NC(=O)[C@@H](NC(=O)OCc2ccccc2)c2cccc(Br)c2)c1`, the IC50 was 85.8 µM.

`Cc1c(C(=O)Nc2cc(-c3cccnc3)ccn2)c2ccccc2n1C`: the IC50 was above 99.5 µM.

Take `CCn1c(=O)c(N2CC(S(=O)(=O)N3CCCC3)C2)nc2ccccc21`: the IC50 is above 99.5 µM.

For the compound `Cc1sc2nc(-c3cccs3)[nH]c(=O)c2c1C`, the IC50 is above 99.5 µM.

As to `Cc1cc(C(=O)Nc2ccc3c(c2)CNC3)c2cn[nH]c2c1`, the IC50 is above 99.5 µM.

With `COCCNC(=O)[C@H](Nc1cccc([C@H]2CCOC2)c1)c1cc(Br)cc2[nH]ccc12`, the concentration for half-maximal inhibition (IC50) is above 99.5 µM.
